Test results reported in patent publication US20070172957A1, “Methods of identifying anti-inflammatory macrolides” (TAISHO PHARMACEUTICAL CO., LTD., priority 2004, published 2007).

Test system: genes predictive for the anti-inflammatory macrolide effect
Test: Genes statistically predictive of Clari response: differentially expressed with Clari but not the inactive macrolides MAA or Josa (Appendix E)
Assay type: cell-based
Description: In the case of the above-mentioned (i) related to arachidonic acid biosynthesis, specifically, methods of the embodiment involve assaying whether a test macrolide alters biosynthesis of arachidonic acid, alters the expression or activities of enzymes involved in the biosynthesis or activation of arachidonic acid (e.g., arachidonic acid CoA synthetase, delta-6 desaturase, fatty acid elongase, and delta-5 desaturase, AA-related genes in Tables 2 and 3), or alters the expression of genes identified as predictive for the anti-inflammatory macrolide effect (Appendix E). Assays in which arachidonic acid or gene expression or enzymatic activity is detected can be carried out after contacting a cell with a test macrolide. Any cell line that secretes prostaglandin or produces arachidonic acid can be used. Epithelial and macrophages lines (e.g., A549 or THP-1) are suitable for this purpose; other cell lines can be identified by carrying out assays such as those described in the specific Examples, below. Alternatively, screening assays can be carried out after adding a test macrolide to an in vitro cell system (e.g., a cellular extract or liver microsome preparation) or an in vitro enzyme assay system.

SMILES: CO[C@@H]1[C@@H](O[C@@H]2O[C@H](C)[C@@H](O[C@H]3C[C@@](C)(O)[C@@H](OC(=O)CC(C)C)[C@H](C)O3)[C@H](N(C)C)[C@H]2O)[C@@H](CC=O)C[C@@H](C)[C@@H](O)/C=C/C=C/C[C@@H](C)OC(=O)C[C@H]1OC(C)=O [josamycin]
- group mean, gene SERPING1 (SpotID 46579, MAA and Josa vs. Clari): 1.03
- group mean, gene C12orf8 (SpotID 46586, MAA and Josa vs. Clari): 0.98
- mean group, FLJ20699 (SpotID 46633, pooled group mean): 1.00
- mean group, ARHGAP1 (SpotID 46648, pooled group mean): 1.07
- group mean, gene KIAA1172 (SpotID 46679, MAA and Josa vs. Clari): 1.04
- mean group, KIAA1172 (SpotID 46679, pooled group mean): 1.04
- group mean, gene MKNK2 (SpotID 46825, MAA and Josa vs. Clari): 0.94
- mean group, MKNK2 (SpotID 46825, pooled group mean): 0.94
- group mean, gene PRKAR1A (SpotID 46838, MAA and Josa vs. Clari): 1.04
- group mean, gene ARHGDIA (SpotID 46843, MAA and Josa vs. Clari): 1.08
- mean group, ARHGDIA (SpotID 46843, pooled group mean): 1.08
- group mean, gene HEXA (SpotID 46882, MAA and Josa vs. Clari): 0.97
- group mean, gene CDIPT (SpotID 46896, MAA and Josa vs. Clari): 0.91
- mean group, CDIPT (SpotID 46896, pooled group mean): 0.91
- mean group, PACE (SpotID 46923, pooled group mean): 1.00
- group mean, gene METAP2 (SpotID 46935, MAA and Josa vs. Clari): 1.05
- mean group, METAP2 (SpotID 46935, pooled group mean): 1.05
- group mean, gene HSPBP1 (SpotID 46979, MAA and Josa vs. Clari): 1.02
- mean group, EREG (SpotID 46988, pooled group mean): 1.11
- group mean, gene TFPI2 (SpotID 46991, MAA and Josa vs. Clari): 1.00
- group mean, gene C2orf3 (SpotID 47034, MAA and Josa vs. Clari): 1.01
- mean group, C2orf3 (SpotID 47034, pooled group mean): 1.01
- group mean, gene NFRKB (SpotID 47056, MAA and Josa vs. Clari): 0.96
- group mean, gene GOLGB1 (SpotID 47111, MAA and Josa vs. Clari): 1.01
- group mean, gene MCM2 (SpotID 47123, MAA and Josa vs. Clari): 0.97
- group mean, gene KIAA0251 (SpotID 47131, MAA and Josa vs. Clari): 0.92
- group mean, gene ARHGAP1 (SpotID 47192, MAA and Josa vs. Clari): 1.10
- group mean, gene ITGB5 (SpotID 47212, MAA and Josa vs. Clari): 0.94
- mean group, NUBP1 (SpotID 47241, pooled group mean): 1.04
- group mean, gene AKR1A1 (SpotID 47249, MAA and Josa vs. Clari): 0.93
- group mean, gene HKE4 (SpotID 47251, MAA and Josa vs. Clari): 0.94
- mean group, EPOR (SpotID 47314, pooled group mean): 0.99
- group mean, gene ADAM11 (SpotID 47352, MAA and Josa vs. Clari): 0.93
- mean group, ADAM11 (SpotID 47352, pooled group mean): 0.93
- group mean, gene ERF (SpotID 47354, MAA and Josa vs. Clari): 1.15
- mean group, P4HB (SpotID 47366, pooled group mean): 1.05
- group mean, gene MTHFD1 (SpotID 47406, MAA and Josa vs. Clari): 1.12
- mean group, CETN2 (SpotID 47415, pooled group mean): 1.06
- group mean, gene SNK (SpotID 47418, MAA and Josa vs. Clari): 1.03
- mean group, SNK (SpotID 47418, pooled group mean): 1.03
- mean group, GCS1 (SpotID 47432, pooled group mean): 0.90
- group mean, gene DCTN1 (SpotID 47439, MAA and Josa vs. Clari): 1.04
- mean group, DCTN1 (SpotID 47439, pooled group mean): 1.04
- group mean, gene RANBP1 (SpotID 47446, MAA and Josa vs. Clari): 1.04
- mean group, RANBP1 (SpotID 47446, pooled group mean): 1.04
- mean group, MSH3 (SpotID 47504, pooled group mean): 1.09
- mean group, SERPINA1 (SpotID 47522, pooled group mean): 1.04
- group mean, gene PTK2B (SpotID 47524, MAA and Josa vs. Clari): 1.34
- group mean, gene ARHGDIA (SpotID 47535, MAA and Josa vs. Clari): 1.08
- group mean, gene TRAP1 (SpotID 47622, MAA and Josa vs. Clari): 1.09
- mean group, TRAP1 (SpotID 47622, pooled group mean): 1.09
- group mean, gene HSPA9B (SpotID 47661, MAA and Josa vs. Clari): 1.10
- mean group, NR4A2 (SpotID 47679, pooled group mean): 0.95
- group mean, gene HSPA9B (SpotID 47694, MAA and Josa vs. Clari): 1.09
- mean group, HSPA9B (SpotID 47694, pooled group mean): 1.09
- group mean, gene MAD4 (SpotID 47705, MAA and Josa vs. Clari): 0.97
- group mean, gene NBS1 (SpotID 47754, MAA and Josa vs. Clari): 1.18
- mean group, NBS1 (SpotID 47754, pooled group mean): 1.18
- group mean, gene KIAA1922 (SpotID 47755, MAA and Josa vs. Clari): 1.14
- group mean, gene POLA (SpotID 47776, MAA and Josa vs. Clari): 1.02
- mean group, POLA (SpotID 47776, pooled group mean): 1.02
- group mean, gene BET3 (SpotID 47793, MAA and Josa vs. Clari): 0.95
- group mean, gene GOT1 (SpotID 47802, MAA and Josa vs. Clari): 1.02
- mean group, GOT1 (SpotID 47802, pooled group mean): 1.02
- group mean, gene ENTPD6 (SpotID 47811, MAA and Josa vs. Clari): 0.93
- mean group, ENTPD6 (SpotID 47811, pooled group mean): 0.93
- mean group, SSI-1 (SpotID 47846, pooled group mean): 1.03
- group mean, gene PRLR (SpotID 47850, MAA and Josa vs. Clari): 1.09
- mean group, PRLR (SpotID 47850, pooled group mean): 1.09
- group mean, gene ERF (SpotID 47898, MAA and Josa vs. Clari): 1.14
- group mean, gene YWHAE (SpotID 47911, MAA and Josa vs. Clari): 1.04
- group mean, gene CCNE2 (SpotID 47926, MAA and Josa vs. Clari): 0.98
- group mean, gene P4HA1 (SpotID 47935, MAA and Josa vs. Clari): 0.95
- mean group, P4HA1 (SpotID 47935, pooled group mean): 0.95
- group mean, gene CTSB (SpotID 47937, MAA and Josa vs. Clari): 0.98
- group mean, gene INPP5E (SpotID 47939, MAA and Josa vs. Clari): 0.99
- group mean, gene SF3B3 (SpotID 47947, MAA and Josa vs. Clari): 1.10
